Source: patent US20150274777A1, “KETOAMIDE IMMUNOPROTEASOME INHIBITORS” (HOFFMANN-LA ROCHE INC., priority 2012, published 2015)

How the values were obtained:
[1] = tested on: IP10 level in PBMCs stimulated with CpG Type A; test: PBMC IP-10 Assay; type: cell-based; conditions: CpG Type A 2.5 μM
Procedure: PBMCs were isolated from whole blood as follows: Blood was collected in a sterile environment in heparinized tubes. Blood was diluted with an equal volume PBS/2% FCS and 30 ml of this mixture was added to ACCUSPIN tubes containing 15 ml Histopaque-1077 already centrifuged at 800 g for 30 seconds and warmed up at room temperature. The tubes were then centrifuged at 800 g for 20 minutes at room temperature with no brake. The mononuclear band, just above the polyethylene frit, was removed by Pasteur pipet. These mononuclear cells were washed three times with sterile PBS, counted, and resuspended in RPMI 1640 supplemented with 10% heat inactivated fetal calf serum, 10 mM HEPES, 1 mM sodium pyruvate, penicillin (50 U/ml), streptomycin (50 μg/ml) and glutamine (2 mM) to approximately 1.5×10^6/ml. Approximately 2×10^5 cells/well were plated in 96 well tissue culture plates (BD Falcon 353072), and preincubated 60 mi/37° C. with a titration of compounds, in a final concentration of 1% DMSO. Cells were then stimulated with CpG Type A (Invivogen, Cat #tlrl-2216; ODN 2216) at a final concentration of 2.5 μM. Cells were incubated overnight, and supernatants were removed. PBMC viability of cells remaining in the well was measured with ATPlite luminescence assay (Perkin-Elmer) per the manufacturer's instructions. Luminescence was measured on the Perkin-Elmer Envision, using the luminescence filter. IP10 level was measured with CXCL10/IP10 AlphaLISA kit (Perkin-Elmer) per the manufacturer's instructions, except halving all volumes. Fluorescence was measured on the Envision Multilabel plate reader, using the AlphaScreen standard settings.

β1i = target: T1, β1i (Homo sapiens, UniProt P28065+P40306); test: Cell-Based Proteasome Activity/Selectivity Assay (Ramos cells), substrate (PAL)2Rh110; conditions: highest concentration tested 20 μM
T1 construct: protease activity associated with the proteasome complex in cultured cells; endogenous in cells; host or cells: Ramos cells
Description: (§1) Cell-Based Proteasome Activity/Selectivity Assay
(§2) The Cell-Based Proteasome subunit activity/selectivity assay was a panel of 5 fluorogenic assays that independently measured the activity of β5c or β5i (chymotrypsin-like activity), β2c/2i (trypsin-like), and β1c or β1i (caspase-like) protease activity associated with the proteasome complex in cultured cells. Specifically, the following substrates were used for respective subunit activities: β1i: (PAL)2Rh110, β1c: (LLE)2 Rh110, β2c/2i: (KQL)2Rh110, β5c: (WLA)2Rh110, β5i: (ANW)2Rh110. The following procedure was followed:
(§3) Cell preparation: Plated 25 μl of Ramos cells (2×10^6/ml in DPBS) into half area plate (PerkinElmer Cat 6005569) to final 5×10^4 cells/well. Added 0.5 μl of 100×4-fold serial diluted test compounds or DMSO to each well. Highest concentration of compound tested was 20 μM, thus compound serial dilution started from […]. Incubated for 30 minutes at 37° C. Then equilibrated at room temperature for 15 minutes. Added 25 μl of 2× reaction mix consisting of 0.025% digitonin, 20 μM of each substrates and 0.5M sucrose in DPBS. Shaked for one minute @ 700 rpm. Incubated for 120 min at room temperature. Then read the plates with an Envision multilabel plate reader (PerkinElmer) with 500 nm excitation/519 nm emission.

β2c/2i = test: Cell-Based Proteasome Activity/Selectivity Assay (Ramos cells), substrate (KQL)2Rh110; conditions: highest concentration tested 20 μM
Description: as §1, §2, §3

β5c = target: T2, β5c (Homo sapiens, UniProt P20618+P28074); test: Cell-Based Proteasome Activity/Selectivity Assay (Ramos cells), substrate (WLA)2Rh110; conditions: highest concentration tested 20 μM
T2 construct: protease activity associated with the proteasome complex in cultured cells; endogenous in cells; host or cells: Ramos cells
Description: as §1, §2, §3

β1c = target: T3, β1c (Homo sapiens, UniProt P28072+Q99436); test: Cell-Based Proteasome Activity/Selectivity Assay (Ramos cells), substrate (LLE)2 Rh110; conditions: highest concentration tested 20 μM
T3 construct: protease activity associated with the proteasome complex in cultured cells; endogenous in cells; host or cells: Ramos cells
Description: as §1, §2, §3

β5i = target: T4, β5i (Homo sapiens, UniProt P20618+P28062); test: Cell-Based Proteasome Activity/Selectivity Assay (Ramos cells), substrate (ANW)2Rh110; conditions: highest concentration tested 20 μM, read-out: Ic50 ramos:ac-(anw)2-r110
T4 construct: protease activity associated with the proteasome complex in cultured cells; endogenous in cells; host or cells: Ramos cells
Description: as §1, §2, §3

Row | SMILES | IC50 (β1i) [nM] | IC50 (β2c/2i) [nM] | IC50 (β5c) [nM] | IC50 (β1c) [nM] | IC50 (β5i) [nM] | EC50 [1] [nM]
1 | C[C@H](NC(=O)OCc1ccccc1)C(=O)N[C@@H](Cc1ccncc1)C(=O)N[C@@H](Cc1ccccc1)C(=O)C(=O)NCc1ccccc1 [Example 58, {(S)-1-[(S)-1-((S)-1-Benzyl-2-benzylcarbamoyl-2-oxo-ethylcarbamoyl)-2-pyridin-4-yl-ethylcarbamoyl]-ethyl}-carbamic acid benzyl ester] | 478 | > 20000 | 960 | > 20000 | 30 | 1330
2 | CCCC[C@H](NC(=O)[C@H](Cc1c[nH]c2ccccc12)NC(=O)[C@H](C)NC(=O)c1cc(C)on1)C(=O)C(=O)NCc1ccccc1 [Example 4, 5-Methyl-isoxazole-3-carboxylic acid {(S)-1-[(S)-1-((S)-1-benzylaminooxalyl-pentylcarbamoyl)-2-(1H-indol-3-yl)-ethylcarbamoyl]-ethyl}-amide] | 91 | > 20000 | 763 | 5700 | 83 | 3910
3 | COCCNC(=O)C(=O)[C@H](Cc1ccccc1)NC(=O)[C@H](Cc1c[nH]c2ccccc12)NC(=O)[C@H](C)NC(=O)OCc1ccccc1 [Example 33, {(S)-1-[(S)-1-[(S)-1-Benzyl-2-(2-methoxy-ethylcarbamoyl)-2-oxo-ethylcarbamoyl]-2-(1H-indol-3-yl)-ethylcarbamoyl]-ethyl}-carbamic acid benzyl ester] | 205 | > 20000 | 597 | 17500 | 14 | 1380
4 | COC[C@H](NC(=O)C1Cc2ccccc2C1)C(=O)N[C@@H](Cc1ccc(OC)cc1)C(=O)N[C@@H](Cc1ccccc1)C(=O)C(=O)NCc1ccccc1 [Example 23, Indan-2-carboxylic acid {(S)-1-[(S)-1-((S)-1-benzyl-2-benzylcarbamoyl-2-oxo-ethylcarbamoyl)-2-(4-methoxy-phenyl)-ethylcarbamoyl]-2-methoxy-ethyl}-amide] | 97 | > 20000 | 5 | 7320 | 1 | 356
5 | C[C@H](NC(=O)N1Cc2ccccc2C1)C(=O)N[C@@H](Cc1ccccc1)C(=O)N[C@@H](Cc1ccccc1)C(=O)C(=O)NCc1ccccc1 [Example 52, 1,3-Dihydro-isoindole-2-carboxylic acid {(S)-1-[(S)-1-((S)-1-benzyl-2-benzylcarbamoyl-2-oxo-ethylcarbamoyl)-2-phenyl-ethylcarbamoyl]-ethyl}-amide] | 1530 | > 20000 | 2350 | 10300 | 221 | 4500
6 | C[C@H](NC(=O)c1cc2ccccc2n1C)C(=O)N[C@@H](Cc1ccccc1)C(=O)N[C@@H](Cc1ccccc1)C(=O)C(=O)NCc1ccccc1 [Example 44, 1-Methyl-1H-indole-2-carboxylic acid {(S)-1-[(S)-1-((S)-1-benzyl-2-benzylcarbamoyl-2-oxo-ethylcarbamoyl)-2-phenyl-ethylcarbamoyl]-ethyl}-amide] | 13100 | > 20000 | 1240 | > 20000 | 13 | 596
7 | CC(C)C[C@H](NC(=O)[C@H](C)NC(=O)OCc1ccccc1)C(=O)N[C@@H](Cc1ccccc1)C(=O)C(=O)NCc1ccccc1 [Example 36, {(S)-1-[(S)-1-((S)-1-Benzyl-2-benzylcarbamoyl-2-oxo-ethylcarbamoyl)-3-methyl-butylcarbamoyl]-ethyl}-carbamic acid benzyl ester] | 359 | > 20000 | 973 | > 20000 | 62 | 2800

Second part, led by results:

Row | IC50 (β1i) [nM] | IC50 (β2c/2i) [nM] | IC50 (β5c) [nM] | IC50 (β1c) [nM] | IC50 (β5i) [nM] | SMILES | EC50 [1] [nM]
8 | 1170 | > 20000 | 1010 | 13600 | 8 | CC1=C(C(=O)N[C@@H](C)C(=O)N[C@@H](Cc2c[nH]c3ccccc23)C(=O)N[C@@H](Cc2ccccc2)C(=O)C(=O)NCc2ccccc2)Cc2ccccc21 [Example 48, 3-Methyl-1H-indene-2-carboxylic acid {(S)-1-[(S)-1-((S)-1-benzyl-2-benzylcarbamoyl-2-oxo-ethylcarbamoyl)-2-(1H-indol-3-yl)-ethylcarbamoyl]-ethyl}-amide] | 615
9 | 266 | > 20000 | 365 | 12200 | 11 | C[C@H](NC(=O)OCc1ccccc1)C(=O)N[C@@H](Cc1c[nH]c2ccccc12)C(=O)N[C@@H](Cc1ccccc1)C(=O)C(=O)NC1CC1 [Example 32, {(S)-1-[(S)-1-((S)-1-Benzyl-2-cyclopropylcarbamoyl-2-oxo-ethylcarbamoyl)-2-(1H-indol-3-yl)-ethylcarbamoyl]-ethyl}-carbamic acid benzyl ester] | 940
10 | > 20000 | > 20000 | 846 | > 20000 | 9 | COc1ccc(C[C@H](NC(=O)[C@H](C)NC(=O)C2=C(C)c3ccccc3C2)C(=O)N[C@@H](Cc2ccccc2)C(=O)C(=O)NCc2ccccc2)cc1 [Example 25, 3-Methyl-1H-indene-2-carboxylic acid {(S)-1-[(S)-1-((S)-1-benzyl-2-benzylcarbamoyl-2-oxo-ethylcarbamoyl)-2-(4-methoxy-phenyl)-ethylcarbamoyl]-ethyl}-amide] | 1080
11 | 499 | > 20000 | 1930 | 17500 | 105 | COc1ccc(C[C@H](NC(=O)[C@H](C)NC(=O)c2cn3ccccc3n2)C(=O)N[C@@H](Cc2ccccc2)C(=O)C(=O)NCc2ccccc2)cc1 [Example 49, Imidazo[1,2-a]pyridine-2-carboxylic acid {(S)-1-[(S)-1-((S)-1-benzyl-2-benzylcarbamoyl-2-oxo-ethylcarbamoyl)-2-(4-methoxy-phenyl)-ethylcarbamoyl]-ethyl}-amide] | 4370
12 | 589 | > 20000 | 1090 | 13500 | 10 | C[C@H](NC(=O)OCc1ccccc1)C(=O)N[C@@H](Cc1c[nH]c2ccccc12)C(=O)N[C@@H](Cc1ccccc1)C(=O)C(=O)NCc1ccccn1 [Example 34, {(S)-1-[(S)-1-{(S)-1-Benzyl-2-oxo-2-[(pyridin-2-ylmethyl)-carbamoyl]-ethylcarbamoyl}-2-(1H-indol-3-yl)-ethylcarbamoyl]-ethyl}-carbamic acid benzyl ester] | 1160
13 | 181 | 380 | 15 | 2380 | 4 | COc1ccc(C[C@H](NC(=O)[C@@H](NC(=O)C2Cc3ccccc3C2)C2CC2)C(=O)N[C@@H](Cc2ccccc2)C(=O)C(=O)NCc2ccccc2)cc1 [Example 26, Indan-2-carboxylic acid {(S)-[(S)-1-((S)-1-benzyl-2-benzylcarbamoyl-2-oxo-ethylcarbamoyl)-2-(4-methoxy-phenyl)-ethylcarbamoyl]-cyclopropyl-methyl}-amide] | 203
14 | 1080 | > 20000 | 4440 | > 20000 | 234 | CC(C)C[C@H](NC(=O)[C@H](C)NC(=O)c1ccnn1C)C(=O)N[C@@H](Cc1ccccc1)C(=O)C(=O)NCc1ccccc1 [Example 37, 2-Methyl-2H-pyrazole-3-carboxylic acid {(S)-1-[(S)-1-((S)-1-benzyl-2-benzylcarbamoyl-2-oxo-ethylcarbamoyl)-3-methyl-butylcarbamoyl]-ethyl}-amide] | 5100
